“And” between values parts separate entries of the source, which are not always exact repeats. Identical values can stand only once.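 How tested: cells in 96-well plates exposed to compound for 48 hours at five concentrations. GI50 marks 50% less growth. Definition used: TGI = concentration required for complete inhibition of growth.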
How the values were obtained:
Experiment in all cases: DTP human tumour cell line panel, 48 h
RPMI-8226 leukemia = tested on: RPMI-8226 leukemia
COLO 205 colon = tested on: COLO 205 colon
A549 NSCLC = tested on: A549 NSCLC
HT29 colon = tested on: HT29 colon
T-47D breast = tested on: T-47D breast
HOP-92 NSCLC = tested on: HOP-92 NSCLC
OVCAR-8 ovarian = tested on: OVCAR-8 ovarian
SK-OV-3 ovarian = tested on: SK-OV-3 ovarian
NCI-H460 lung = tested on: NCI-H460 lung
SNB-75 CNS = tested on: SNB-75 CNS

Row | SMILES | GI50 (RPMI-8226 leukemia) | TGI (RPMI-8226 leukemia) | GI50 (COLO 205 colon) | TGI (COLO 205 colon) | GI50 (A549 NSCLC) | TGI (A549 NSCLC) | GI50 (HT29 colon) | TGI (HT29 colon) | GI50 (T-47D breast) | TGI (T-47D breast) | GI50 (HOP-92 NSCLC) [µM] | TGI (HOP-92 NSCLC) | GI50 (OVCAR-8 ovarian) | TGI (OVCAR-8 ovarian) | GI50 (SK-OV-3 ovarian) | TGI (SK-OV-3 ovarian) | GI50 (NCI-H460 lung) | TGI (NCI-H460 lung) | GI50 (SNB-75 CNS) | TGI (SNB-75 CNS)
1 | CCN(Cc1ccc(F)cc1)c1ccc(CO)c(Cl)c1 | 3.68 µM | 36.3 µM | 1.35 µM | 3.77 µM | 1.16 µM | 22.6 µM | 3.02 µM | 16.1 µM | 0.0821 µM | 0.472 µM | 0.956 | 13.1 µM | 9.24 µM | 43.5 µM | 3.86 µM | 25.2 µM | 0.213 µM | 11.7 µM | 4.58 µM | 39.6 µM
2 | COc1cc2c(c(OC)c1OC)-c1ccc(OC)c(=O)cc1[C@@H](NC(=O)CCl)CC2 | < 0.01 µM | 15.8 µM | < 0.01 µM | < 0.01 µM | < 0.0141 µM | 25.6 µM | < 0.01 µM | 10.1 µM | 13.2 µM | > 59 µM |  | 7.2 µM | < 0.01 µM | > 33.6 µM | < 0.01 µM |  | < 0.01 µM | 0.585 µM | < 0.01 µM | 54.7 µM
3 | COc1ccc(-c2cc(-c3ccc(Nc4nc(Nc5ccc(Cl)cc5)nc(Nc5ccc(Cl)cc5)n4)cc3)no2)cc1 | 13.1 µM | 48.2 µM | 11.6 µM | 29.7 µM | 16.4 µM | 84.7 µM | 15.1 µM | 59.9 µM | 6.26 µM | > 100 µM | 1.91 | 6.26 µM | 12.6 µM | 55.3 µM | 25.8 µM | 79.4 µM | 5.58 µM | 25.2 µM | 35.2 µM | > 100 µM
4 | COc1cc2c(c(OC)c1OC)-c1ccc([O-])c(=O)cc1[C@@H](NC(C)=O)CC2.COc1cc2c(c(OC)c1OC)-c1ccc([O-])c(=O)cc1[C@@H](NC(C)=O)CC2.[Cu+2] | 3.17 µM | 38.2 µM | 2.82 µM | 9.19 µM | 6.5 µM | > 100 µM | 3.43 µM | > 100 µM | 7.95 µM | > 100 µM | 17.5 | > 100 µM | 3.77 µM | 34.5 µM | 2.95 µM | > 100 µM | 3.29 µM | 15.7 µM | 5.39 µM | > 100 µM
5 | O=c1oc2ccc(Cl)cc2c(=O)n1-c1ccc(Cl)cc1F | 0.28 µM | 1.09 µM | 6.74 µM | 22.4 µM | 0.998 µM | > 31.6 µM | 3.33 µM | > 33.5 µM | 0.36 µM | 2.2 µM | 0.143 | 0.49 µM | 0.721 µM | > 21.7 µM | 0.501 µM |  | 0.412 µM | 11 µM | 0.219 µM | 1.54 µM
6 | COc1cc(N2CCC(N3CCN(C)CC3)CC2)ccc1Nc1ncc(Cl)c(Nc2ccccc2P(C)(C)=O)n1 | 3.89 µM | 39.8 µM | 0.381 µM | 2.08 µM | 1.21 µM | 14.1 µM | 0.204 µM | 4.81 µM | > 100 µM | > 100 µM | 0.4 | 2.41 µM | 5.05 µM | > 100 µM | 0.992 µM | 5 µM | 2.47 µM | > 40 µM | 1.66 µM | 4.83 µM
7 | COc1ccc(-c2coc3ncnc(N)c23)cc1 | > 25 µM | > 25 µM | > 25 µM | > 25 µM | > 25 µM | > 25 µM | > 25 µM | > 25 µM | > 25 µM | > 25 µM | > 14 | > 25 µM | > 25 µM | > 25 µM | > 25 µM | > 25 µM | > 25 µM | > 25 µM | > 25 µM | > 25 µM
8 | CCCCCCCCCCCCCOC(=O)c1c(C)[nH]c(/C=C2\N=C(c3ccc[nH]3)C=C2OC)c1C | 0.0498 µM | > 100 µM | 0.0583 µM | > 100 µM | 0.0419 µM | 0.505 µM | < 0.0126 µM | > 100 µM | 0.0583 µM | > 43.4 µM | 0.0698 | 0.497 µM | 0.0454 µM |  | 2.8 µM | 37.1 µM | < 0.017 µM | > 100 µM | 0.919 µM | 10.9 µM
9 | Nc1nc(N)c2nc(CNc3ccc(C(=O)CC(CCC(=O)O)C(=O)O)cc3)cnc2n1 (stereo not given) |  | > 100 µM | 5.77 µM | > 100 µM | 0.153 µM | > 100 µM | 0.0417 µM | > 100 µM | > 100 µM | > 100 µM | > 100 | > 100 µM | 0.166 µM | > 100 µM |  | > 100 µM | 0.127 µM | > 100 µM | 4.71 µM | > 100 µM
10 | COc1cccc(-c2nn(-c3ccccc3)cc2-c2ccnc(NCCNS(=O)(=O)c3ccc(C(F)(F)F)cc3)c2)c1 | 2.42 µM | 7.86 µM | 1.87 µM | 3.57 µM | 3.71 µM | 32 µM | 2.32 µM | 5.75 µM | 2.36 µM | 7.55 µM | 2.12 | 6.83 µM | 4.07 µM | 46.2 µM | 3 µM | 11.1 µM | 3.47 µM | > 100 µM | 3.18 µM | 37.1 µM
11 | O=C(O)C(=O)Cc1ccc2c(c1)OCO2 |  | > 100 µM |  | > 100 µM |  | > 100 µM |  | > 100 µM |  | > 100 µM |  | > 100 µM |  | > 100 µM |  | > 100 µM |  | > 100 µM |  | > 100 µM
12 | Cc1cc(N(CCOS(C)(=O)=O)CCOS(C)(=O)=O)ccc1C=Nc1ccc(-c2csc(-c3ccccc3)n2)c(Cl)c1 |  | > 71 µM |  | 10.2 µM |  | 15.9 µM |  | 31.5 µM |  | > 85.2 µM |  | 27.6 µM |  | > 84.2 µM |  | 31.6 µM |  | 7.01 µM |  | 14.1 µM
13 | CCC1CCc2nc3sc(C(=O)Nc4ccccc4F)c(N)c3cc2C1 (stereo not given) | 0.94 µM | > 100 µM | 7.4 µM | > 100 µM | > 100 µM | > 100 µM | 0.915 µM | > 100 µM | > 100 µM | > 100 µM | 4 | > 100 µM | > 100 µM | > 100 µM | > 100 µM | > 100 µM | 2.71 µM | > 100 µM | 2.16 µM | > 100 µM
14 | CN1CCN(C(=O)c2ccc(NC(=O)Nc3ccc(N(C)c4ccnc(Nc5ccc(CS(C)(=O)=O)cc5)n4)cc3)cc2)CC1 | 8.85 µM | > 25 µM | 13 µM | > 25 µM | > 23.3 µM | > 25 µM | 11.4 µM | > 25 µM | 4.68 µM | 19.7 µM | > 25 | > 25 µM | 7.22 µM | > 24 µM | > 25 µM | > 25 µM | 11.8 µM | > 25 µM | 12.7 µM | > 25 µM
15 | CC1(C)SC2C(C(=O)O)N=C(Cc3ccccc3)N2C1C(=O)O (stereo not given) |  | > 100 µM |  | > 100 µM |  | > 100 µM |  | 29 µM |  | 73.7 µM |  | > 100 µM |  | > 100 µM |  | > 100 µM |  | > 100 µM |  | 49.2 µM
16 | NC1=NC(=O)N2CC12 (stereo not given) |  | > 100 µM and 22 µM and 218 µM | 278 µM | > 100 µM and 929 µM | 890 µM | > 100 µM and 3450 µM | 400 µM | > 100 µM and 3130 µM | 26.7 µM and 54.5 µM | 316 µM | 70.8 | > 100 µM and 173 µM | 141 µM | > 100 µM and 5000 µM | 369 µM | > 100 µM and 991 µM | 182 µM | > 100 µM and 866 µM | 240 µM | > 100 µM and 822 µM
17 | CS(=O)(=O)c1ccc(N/N=C/c2c(-c3ccc(S(C)(=O)=O)cc3)[nH]c3ccc(F)cc23)cc1 | 1.15 µM | 2.9 µM | 2.86 µM | > 50 µM | 7.98 µM | > 50 µM | 2.08 µM | > 50 µM | 1.41 µM | > 50 µM | 2.18 | > 50 µM | 1.24 µM | > 50 µM | 3.27 µM | > 50 µM | 1.77 µM | > 50 µM | 1.52 µM | 40 µM
18 | CNC(=O)c1ccc(Nc2ncc(C(F)(F)F)c(NCc3nccnc3N(C)S(C)(=O)=O)n2)cc1 | 2.59 µM and 2.95 µM and 2.27 µM | 6.9 µM and 8.16 µM and 7.58 µM | 1.32 µM and 1.37 µM and 1.39 µM | 2.91 µM and 2.78 µM and 3.17 µM | 2.79 µM and 2.94 µM and 3.13 µM | > 10 µM and 8.79 µM and 12.1 µM | 3.41 µM and 2.75 µM and 3.21 µM | > 10 µM and 8.63 µM and 11.3 µM | 3.47 µM and 3.46 µM and 2.9 µM | > 10 µM and 12.5 µM and 10.4 µM |  | 2.37 µM and 6.54 µM and 6.4 µM | 3.44 µM and 3.69 µM and 3.83 µM | > 10 µM and 13.6 µM and 18 µM | 3.16 µM and 2.27 µM and 2.41 µM | > 10 µM and 9.35 µM and 11.4 µM | 2.05 µM and 2.75 µM and 2.16 µM | > 10 µM and 10.2 µM and 11.1 µM | 1.52 µM and 1.41 µM | 4.9 µM
19 | C=C(C)C(=O)NC(N)=NC#N | 24.7 µM | 44.9 µM and 120 µM | 80.5 µM | 206 µM |  | 307 µM | 102 µM | 248 µM | 57.5 µM | 56.3 µM and 206 µM | 26.7 | 33.7 µM and 63.1 µM | 119 µM | > 90 µM and 287 µM |  | 308 µM | 163 µM | 306 µM | 154 µM | 289 µM
